Data published in US12257325B2, “Chelating platform for delivery of radionuclides” (priority 2016, dated 2025).

Legend:
[1] = cited from earlier work
[2] = Incremental spectrophotometric titrations: stability constants of Th(IV) complexes (DTPA competition); format: physicochemical; details: 1 equivalent of Th(IV); calculated speciation diagram
Procedure: (§1) Solution Thermodynamics. All titrant solutions were degassed by boiling for 1 h while being purged under Ar. Carbonate-free 0.1 M KOH was prepared from concentrate (J.T Baker Dilut-It) and was standardized by titrating against 0.1 M potassium hydrogen phthalate (99.95%, Sigma Aldrich). Solutions of 0.1 M HCl were similarly prepared and were standardized by titrating against TRIS (99.9%, J.T. Baker). The glass electrode (Metrohm-Micro Combi-response to [H+]) used for the pH measurements was calibrated at 25.0° C. and at an ionic strength of 0.1 M (KCl) before each potentiometric or spectrophotometric titration. The calibration data were analyzed using the program GLEE (Gans & O'Sullivan, Talanta, 2000, 51 (1): 33-37) to refine for the E° and slope. […]
(§2) Incremental Spectrophotometric Titrations. […] For the 3,4,3-LI(CAM) protonation (and Eu(III)-3,4,3-LI(CAM) complexes), titrations were performed with an initial concentration of 50 μM of 3,4,3-LI(CAM) (and 50 μM of Eu(III)) resulting in absorbance values included between 0 and 1.0 throughout the titration. […]
(§3) Data Treatment. […] All metal and chelator concentrations were held at estimated values determined from the volume of standardized stock solutions. All species formed with 3,4,3-LI(CAM) were considered to have significant absorbance to be observed in the UV-vis spectra and were therefore included in the refinement process. […]

[3] = target: T1, recombinant wild-type Scn (Homo sapiens, UniProt P80188); assay: Fluorescence Quenching Binding Assay
T1 construct: made in house
Procedure: Metal, Chelator, and Protein Working Solutions. The trivalent lanthanide Ln(III) working stock solutions were prepared in standardized 0.1 M HCl. A Zr(IV) stock solution was prepared by dissolving ZrCl4 in 3.0 M H2SO4, to prevent hydrolysis. The metal salt ZrCl4 was handled and stored in a glovebox kept under inert atmosphere. The Zr(IV) stock solution was standardized against EDTA, with xylene orange as the indicator (Welcher, F. J. The analytical uses of ethylenediamine tetraacetic acid; 1958). A Th(IV) stock solution was prepared in 0.1 M H2SO4. […]
Fluorescence Quenching Binding Assay. […] Fluorescence quenching of Scn was measured after each titrant addition on a HORIBA Jobin Yvon IBH FluoroLog-3 spectrofluorimeter, with 3 nm slit band-pass, using the characteristic excitation and emission wavelengths λexc=280 and λem=320-360 nm. The intrinsic fluorescence in proteins is generally attributed to tryptophan residues; two residues W31 and W79 are found in the proximity of the Scn binding site. Fluorescence values were corrected for dilution upon addition of titrant. Fluorescence data were analyzed by nonlinear regression analysis of fluorescence response versus chelator concentration using a one-site binding model as described elsewhere. […]

[4] = Incremental spectrophotometric titrations: stability constants of Eu(III) complexes; format: physicochemical; details: 1 equivalent of Eu(III); calculated speciation diagram
Procedure: as §1, §2, §3

[5] = Incremental spectrophotometric titrations: stability constants of Zr(IV) complexes (DTPA competition); format: physicochemical; details: 1 equivalent of Zr(IV); calculated speciation diagram
Procedure: as §1, §2, §3

[6] = Incremental spectrophotometric titrations: protonation constants of 3,4,3-LI(CAM); format: physicochemical; details: I=0.1 M (KCl), T=25° C.; lower values = higher acidity
Procedure: as §1, §2, §3

[7] = In Vivo Biodistribution Assay with ^238Pu tracer; set-up: species or system CD-1 mice; details: mice, intravenous
Procedure: In Vivo Biodistribution Assay. All procedures and protocols used in the presented in vivo studies were reviewed and approved by the Institutional Animal Care and Use Committee at Lawrence Berkeley National Laboratory and performed in AAALAC accredited facilities. The animals used were adult female CD-1 mice (180±7 days old, 40.8±5.8 g). Solutions of ^238Pu complexed by 3,4,3-LI(CAM) and Scn:3,4,3-LI(CAM) were prepared in situ at molar ratios protein:ligand:^238Pu of 0:100:1 and 100:100:1, respectively by mixing and incubating the appropriate quantities of ^238Pu(NO3)4, ligand, and protein in phosphate-buffered saline (PBS) to reach a ^238Pu concentration of 12 ng L-1. Protein solutions were washed thrice with PBS using 10 kDa molecular weight cut-off membrane-based centrifugal filters, and all solutions were filter-sterilized (0.22 μm) prior to injection. Under isoflurane anesthesia, groups of three normally fed mice were injected intravenously with 0.2 mL of a complex solution (370 Bq per mouse). After injection of the ^238Pu tracer, mice were weighed, identified, and housed in groups of three in plastic stock cages lined with a 0.5 cm layer of highly absorbent low-ash pelleted cellulose bedding (Alpha-dri) for separation of urine and feces. Mice were given water and food ad libitum and euthanized at 4, 24, or 48 h after tracer injection. All experiments using ^238Pu tracers were managed as metabolic balance studies, in which tissues and excreta were analyzed for ^238Pu by liquid scintillation counting on a Perkin Elmer Packard Tri-Carb model B4430. The methods of sample collection, preparation, radioactivity measurements, and data reduction have been published previously (Sturzbecher-Hoehne, et al., Dalton Transactions, 2011, 40 (33): 8340-8346: Kullgren, et al., Toxicology mechanisms and methods, 2013, 23 (1), 18-26; Durbin, et al., Health physics 2000, 78 (5): 511-521). Those methods provide quantitative measurements of radioactivity in biological samples; material recoveries averaged 99% of the amount injected in these experiments.
Biodistribution Evaluation. To evaluate the in vivo retention and excretion patterns of M(IV)-3,4,3-LI(CAM) complexes and their Scn adducts, ^238Pu(IV) was used as a radiolabel. ^238Pu(IV) likely behaves similarly to Th(IV) and Zr(IV) (the ionic radius of Pu^4+ is included between those of Th^4+ and Zr^4+) (Sturzbecher-Hoehne, et al., Inorganic Chemistry, 2015, 54 (7): 3462-3468) but allows for more accurate metabolic balance experiments due to its relatively long radioactive half-life (87.8 yr) and low specific activity (0.63 TBq/g), compared to the therapeutic ^227Th (18.68 d; 1139 TBq/g) and imaging ^89Zr (78.42 h; 16,630 TBq/g) isotopes. […] In this in vivo stability experiment, ^238Pu-ligand complex solutions were formed in situ (Ligand:Pu and Scn:Chelator:Pu ratios of 100:1 and 100:100:1, respectively) and administered intravenously. Mice were euthanized 4, 24, or 48 h after the metal injection, and tissues and excreta were radioanalyzed for ^238Pu content (FIG. 14).

Molecule: O=C(NCCCN(CCCCN(CCCNC(=O)c1cccc(=O)n1O)C(=O)c1cccc(=O)n1O)C(=O)c1cccc(=O)n1O)c1cccc(=O)n1O [3,4,3-LI(1,2-HOPO)]
- pH at which 4+ metal complexes are formed ([1]; 4+ metals, very acidic conditions): < 0
- pH at which Eu(III) species appear ([1]; Eu(III), same conditions): 1

Molecule: O=C(NCCCN(CCCCN(CCCNC(=O)c1cccc(O)c1O)C(=O)c1cccc(O)c1O)C(=O)c1cccc(O)c1O)c1cccc(O)c1O [3,4,3-LI(CAM)]
- pH at which complexes start forming [2]: ~3
- Kd [3]: 1.2 ± 0.4 nM
- pH at which complexation starts [4]: 5
- pH at which complexes start forming [5]: ~3
- overall acidity ΣpKa5-8 [6]: 45.4

B1: Scn:[Pu^IV(3,43-LI(CAM))]: siderocalin adduct of the ^238Pu(IV) complex of 3,4,3-LI(CAM), Scn:chelator:Pu 100:100:1 (conjugate, UniProt P80188 21-198, looked up)
Neutrophil …: QDSTSDLIPAPPLSKVPLQQNFQDNQFQGKWYVVGLAGNAILREDKDPQKMYATIYELKEDKSYNVTSVLFRKKKCDYWIRTFVPGCQPGEFTLGNIKSYPGLTSYLVRVVSTNYNQHAMVFFKKVSQNREYFKITLYGRTKELTSELKENFIRFSKSLGLPENHIVFPVPIDQCIDG
modifications: bound Pu(IV)-3,4,3-LI(CAM) complex
- in vivo stability [7]: high in vivo stability
- injected ^238Pu excreted by 48 hours ([7]; 370 Bq per mouse, 48 h): 30%
- ^238Pu found in the kidneys ([7]; 4 h after administration): up to 52%
- ^238Pu in urine versus feces ([7]; all time points (4, 24, 48 h)): more ^238Pu was found in the urine than in the feces
- retention and excretion pattern (kidney vs. liver) ([7]; early time points): favors elimination through the renal system
